What follows are molecules tested against T1, Acidic phospholipase A2 CM-I (Naja mossambica, UniProt P00602) (assay: Inhibitory activity against phospholipase A2).
T1 sequence (P00602 whole entry): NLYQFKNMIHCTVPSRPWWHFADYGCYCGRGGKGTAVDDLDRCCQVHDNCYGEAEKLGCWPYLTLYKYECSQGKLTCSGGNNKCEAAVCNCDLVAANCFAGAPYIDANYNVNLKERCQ
`CCCCCCCCNC(=O)Oc1cccc(OC(=O)Cc2ccccc2)c1` showed a Ki of 73 µM.
`CCCCCCCCNC(=O)Oc1cccc(OC(=O)c2ccccc2)c1` gave a Ki of 95 µM.
For `CCCCCCCCNC(=O)Oc1cccc(OC(=O)C(c2ccccc2)(c2ccccc2)c2ccccc2)c1`, the Ki was 38 µM.
For `CCCCCCCCNC(=O)Oc1cccc(OC(=O)CCCCCCC)c1`, the Ki was 27 µM.
Work on `CCCCCCCCNC(=O)Oc1cccc(OC(=O)CCCC)c1` yielded a Ki of 75 µM.
`CCCCCCCCNC(=O)Oc1cccc(OC(=O)C(C)(C)C)c1` showed a Ki of 55 µM.
In the case of `CCCCCCCCCCCCCCCC(=O)Oc1cccc(OC(=O)NCCCCCCCC)c1`, the Ki is reported as 9.6 µM.
Work on `CCCCCCCCNC(=O)Oc1cccc(OC(=O)C(Cl)(Cl)Cl)c1` yielded a Ki of 120 µM.
`CCCCCCCCNC(=O)Oc1cccc(OC(C)=O)c1` showed a Ki of 98 µM.

From ChEMBL document CHEMBL1144340, “QSAR for phospholipase A2 inhibitions by 1-acyloxy-3-N-n-octylcarbamyl-benzenes” (Bioorg Med Chem Lett, 2005)
